From patent US11040937B2, “Amide derivative” (TOHOKU UNIVERSITY, priority 2014, dated 2021)

Test system: OPN production in A549 cells
Test: OPN production in culture supernatant by ELISA, per mg cell protein
Format: cell-based, human
Conditions: for amount of the OPN production vs control group: 2 days, significance level less than 1%
Description: Brefelamide (Compound 1) was added to a culture liquid containing cells of human liver cancer-derived cell line HepG2, human non-small cell lung cancer-derived cell line A549, human renal cell carcinoma-derived cell line OUR-10, or human pancreatic cancer-derived cell line QGP-1, and the amount of OPN in the culture supernatant after 2 days was measured using Human Osteopontin Immunoassay kit (R&D systems). The confirmation test was performed by comparison of the OPN amount of Compound 1-treated group with that of DMSO-treated group (control group). In addition, Compounds 6, 19, 26, and 38 which are brefelamide derivatives were added to a culture liquid containing cells of human non-small cell lung cancer-derived cell line A549, and a similar confirmation test to the above-mentioned test was performed.
Compounds 1, 6, 19, 26, and 38 have also a cell growth inhibitory effect. Thus, in order to properly evaluate the inhibitory effect of the compounds on the OPN production, the 1×CCLR solution used in luciferase assay was added to cells remaining in each well after removal of culture supernatant to prepare a cell lysate, and the amount of protein in the cell lysate was measured using BCA Protein Assay Kit (Thermo Scientific). The influence of Compound 1 on the amount of the OPN production was evaluated by comparison of the amount of OPN per milligram of protein.
HepG2 cells or A549 cells were suspended in DMEM medium containing 10% FCS and 1% P/S at 4×10^4 cells/mL to obtain a cell suspension, and the cell suspension was dispensed into each well of a 24-well plate in an amount of 500 μL. In order to perform the test in triplicate, 3 wells were prepared for each control group, and 3 wells were prepared for each test compound-treated group at each concentration. The 24-well Plate was incubated in a CO2 incubator (at 37° C., and 3% CO2) for 24±4 hours.
Compound 1, 6, 19, 26, and 38 which are test compounds were dissolved in DMSO to prepare a 50 mmol/L solution of each compound, and the solutions were stored at −80° C. The solution of Compound 1 was diluted with DMSO to prepare 2.5 mmol/L and 5 mmol/L solutions (FIG. 1), 3.125 mmol/L and 6.25 mmol/L solutions (FIG. 2), 6.25 mmol/L and 12.5 mmol/L solutions (FIG. 3), or 5 mmol/L and 10 mmol/L solutions (FIG. 4). The two solutions of Compound 1 at different concentrations were added in an amount of 2 μL per well to wells in which HepG2, A549, OUR-10, or QGP-1 cells were culture, respectively. Only DMSO was added in an amount of 2 μL to each control well.
Similarly, the 50 mmol/L solution of Compound 6 was stared at −80° C., and the solution was diluted with DMSO to prepare 2.5 mmol/L and 5 mmol/L solutions (FIG. 5). The two solutions of Compound 6 at different concentrations were added in an amount of 2 μL per well to wells in which A549 cells were cultured. Only DMSO was added in an amount of 2 μL to the control well.
Also, the 50 mmol/L solutions of Compounds 19, 26, and 38 were stored at −80° C., and each solution was diluted with DMSO to prepare 3.125 mmol/L and 6.25 mmol/L solutions (FIGS. 8 to 10). The two solutions of Compound 19, 26, or 38 at different concentrations were added in an amount of 2 μL per well to wells in which A549 cells were cultured, respectively. Only DMSO was added in an amount of 2 μL to each control well.
The 24-well plate was shaken to mix the solution in each well, and was then incubated in a CO2 incubator (at 37° C. and 5% CO2) for 48±4 hours. Then, the total amount of the resulting culture supernatant was transferred into a 1.5 mL tube, and D-PBS(−) (500 μL) was added to each well containing cells.
The 24-well plate was gently shaken to remove D-PBS(−), and then 5×CCLR used in luciferase assay was diluted to 5 times with water to prepare 1×CCLR. The prepared 1×CCLR was dispensed into each well in an amount of […]. The 24-well plate was then rocked on a rocking shaker for 15 minutes. […]

[1] = concentration increased from 12.5 μmol/L to 25 μmol/L

Row | SMILES | amount of the OPN production vs control group (12.5 μmol/L) | amount of the OPN production vs control group (25 μmol/L) | OPN production, dependence on concentration [1] | amount of the OPN production vs control group (10 μmol/L) | amount of the OPN production vs control group (20 μmol/L) | OPN production, dependence on concentration (concentration increased from 10 μmol/L to 20 μmol/L)
1 | O=C(CCNC(=O)c1ccc(O)cc1)Nc1cccc(Oc2ccc(Cl)c(Cl)c2)c1 [Compound 38, N-(3-(3-(3,4-dichlorophenoxy)phenylamino)-3-oxopropyl)-4-hydroxybenzamide] | significantly inhibited | significantly inhibited | inhibited depending on the concentration | – | – | –
2 | Nc1ccc(C(=O)NCCC(=O)c2cccc(Oc3ccc(Cl)cc3)c2N)cc1 [Compound 19, N-(3-(2-Amino-3-(4-chlorophenoxy)phenyl)-3-oxopropyl)-4-aminobenzamide] | significantly inhibited | significantly inhibited | inhibited depending on the concentration | – | – | –
3 | COc1ccc(Oc2cccc(NC(=O)CCNC(=O)c3ccc(O)cc3)c2)cc1 [Compound 26, N-(3-(3-(4-Methoxyphenoxy)phenylamino)-3-oxopropyl)-4-hydroxybenzamide] | – | – | inhibited depending on the concentration | – | – | –
4 | COc1ccc(Oc2cccc(C(=O)CCNC(=O)c3ccc(O)cc3)c2N)cc1 [Compound 6, N-(3-(2-Amino-3-(4-methoxyphenoxy)phenyl)-3-oxopropyl)-4-hydroxybenzamide] | – | – | – | significantly inhibited | significantly inhibited | inhibited depending on the concentration
